The text below walks through data of US20180228804A1, “COMBINATION THERAPY OF HBV AND HDV INFECTION” (MYR GMBH, priority 2014, published 2018).

In test [1] the test system is HepaRG cells infected with HBV/HDV containing serum. As to the kind of experiment: Number of HBcAg-positive HepaRG cells on day 6 post infection by HBcAg-specific IF, Myrcludex B with or without entecavir. The test is classed as cell-based. As to conditions: immunochemistry.
Another test concerns HBV. As to conditions: after two years of treatment; cited from earlier work.

On to `C=C1[C@H](CO)[C@@H](O)C[C@@H]1n1cnc2c(=O)[nH]c(N)nc21` [entecavir], for which the “effect of entecavir on the inhibition of HBV receptor by Myrcludex B in vitro” value in test [1] is “did not improve”.
On to `C[C@H](Cn1cnc2c(N)ncnc21)OCP(=O)(O)O` [tenofovir], for which, in the test with HBV, the HBsAg seroconversion was 4 % of patients.
